Results as given in a compilation of properties of binary mixtures (doi:10.1016/j.jtice.2008.09.006).

Experiment: xn = mol fraction of the nth substance listed
Settings: 101 kPa

CCCC[n+]1ccn(C)c1.F[P-](F)(F)(F)(F)F + O
electrical conductivity [S/m]
Settings | 293.2 K | 298.2 K | 303.2 K | 308.2 K | 313.2 K | 318.2 K | 323.2 K | 333.2 K | 343.2 K | 353.2 K
x2 = 0.05 | 0.181 | – | 0.291 | 0.351 | 0.423 | – | 0.592 | 0.701 | 0.833 | 1.06
x2 = 0.1 | – | 0.268 | 0.331 | – | 0.488 | 0.563 | – | 0.797 | 0.928 | 1.22
x2 = 0.15 | 0.235 | – | 0.382 | 0.469 | – | 0.675 | 0.792 | 0.923 | – | –
x2 = 0.2 | 0.29 | 0.364 | 0.448 | – | 0.652 | – | 0.911 | – | 1.23 | –
